Earlier results as cited in article PMC3689924 (Pharmacology, 2012).

Conditions: cited from earlier work

SMILES | increase in AUC with increasing dose
COC(=O)c1cnc2n1CCc1ccccc1C2=C1CCN(CCc2ccc(OCc3ccc4ccccc4n3)cc2)CC1 [laniquidar] | greater than proportional increases in AUC
O[C@@H](COc1cccc2ncccc12)CN1CCN([C@@H]2c3ccccc3[C@@H]3[C@H](c4ccccc42)C3(F)F)CC1 [zosuquidar] | greater than proportional increases in AUC
